In general, pIC50 refers to the negative decadic logarithm of the IC50, by convention in mol/L.

The structures appear in SMILES notation. pIC50: −log10 of the molar value.

One test concerns the target T1, P2X7 receptor (Homo sapiens, UniProt Q99572).
T1 construct: host or cells: SH-SY5Y
T1 sequence (Q99572 1-595): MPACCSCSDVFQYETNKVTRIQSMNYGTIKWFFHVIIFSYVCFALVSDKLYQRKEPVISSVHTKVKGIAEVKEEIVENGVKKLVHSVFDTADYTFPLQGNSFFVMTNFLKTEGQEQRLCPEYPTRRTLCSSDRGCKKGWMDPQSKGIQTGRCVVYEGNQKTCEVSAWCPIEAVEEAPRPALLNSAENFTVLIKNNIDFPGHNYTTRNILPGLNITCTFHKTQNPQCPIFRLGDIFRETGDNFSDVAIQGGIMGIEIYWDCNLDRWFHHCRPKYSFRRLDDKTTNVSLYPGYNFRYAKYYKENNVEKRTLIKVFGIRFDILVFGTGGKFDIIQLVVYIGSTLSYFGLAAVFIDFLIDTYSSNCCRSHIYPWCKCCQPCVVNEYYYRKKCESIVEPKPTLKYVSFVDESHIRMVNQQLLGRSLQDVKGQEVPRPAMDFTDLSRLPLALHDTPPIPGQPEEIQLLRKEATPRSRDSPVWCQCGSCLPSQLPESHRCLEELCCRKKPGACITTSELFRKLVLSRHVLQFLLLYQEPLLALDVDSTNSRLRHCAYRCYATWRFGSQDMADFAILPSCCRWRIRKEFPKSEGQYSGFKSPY
The test can be described thus: P2X7 calcium mobilization assay, high throughput, antagonist activity (Example 4A).
Details: not given
The test is classed as cell-based. Put shortly:
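Antagonism was measured as calcium mobilization on FLIPR^TETRA after a 1 h room-temperature compound preincubation of dye-loaded cells. Baseline from no-agonist wells was subtracted from each well's maximum RFU.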
Consider `O=C(NCC1CCCCC1)c1cccc2nc(CCl)cn12` [Compound 142, 2-(chloromethyl)-N-(cyclohexylmethyl)imi-dazo[1,2-a]pyridine-5-carboxamide], for which the negative logarithm of the IC50 (pIC50) was more than 5.70.

The same test, now with this note: 50% decrease in the fluorescence response of cells exposed to 80 μM 2′(3′)-O-(4-benzoyl-benzoyl)adenosine 5′-triphosphate; Example 4A; read-out: IC50.
On to `O=C(NCC12CC3CC(CC(C3)C1)C2)c1cccc2nc(CN3C[C@H](O)CC3=O)cn12` [Compound 538, N-(adamantan-1-ylmethyl)-2-{[(4R)-4-hydroxy-2-oxopyrrolidin-1-yl]methyl}imidazo[1,2-a]pyridine-5-carboxamide], for which the pIC50 was more than 5.70.

For `C[C@@H]1CNCCN1C(=O)c1cn2c(C(=O)NCC34CC5CC(CC(C5)C3)C4)cccc2n1` [Compound 600, N-(adamantan-1-ylmethyl)-2-{[(2R)-2-methylpiperazin-1-yl]carbonyl}imidazo[1,2-a]pyridine-5-carboxamide], the pIC50 is more than 5.70.

As for `CC1(C)[C@H]2CC[C@@H](CNC(=O)c3cccc4nc(C(=O)N5CCCCC5)cn34)[C@@H]1C2` [Compound 465, N-{[(1S,2R,5S)-6,6-dimethylbicyclo[3.1.1]hept-2-yl]methyl}-2-(piperidin-1-ylcarbonyl)imidazo[1,2-a]pyridine-5-carboxamide], the pIC50 is more than 5.70.

Turning to `CC1(C)[C@@H]2CC[C@@H](CNC(=O)c3cccc4nc(CC(=O)N5CCCC(N)C5)cn34)[C@H]1C2` (stereo partly drawn) [Compound 581, 2-[2-(3-aminopiperidin-1-yl)-2-oxoethyl]-N-{[(1R,2R,5R)-6,6-dimethylbicyclo[3.1.1]hept-2-yl]methyl}imidazo[1,2-a]pyridine-5-carboxamide], the pIC50 was more than 5.70. `CC1(C)[C@@H]2CC[C@@H](CNC(=O)c3cccc4nc(CC(=O)N5CCCC(CN)C5)cn34)[C@H]1C2` (stereo partly drawn) [Compound 578, 2-{2-[3-(aminomethyl)piperidin-1-yl]-2-oxoethyl}-N-{[(1R,2R,5R)-6,6-dimethylbicyclo[3.1.1]hept-2-yl]methyl}imidazo[1,2-a]pyridine-5-carboxamide]: the pIC50 was more than 5.70. Turning to `CCCCN(C)C(=O)c1cn2c(C(=O)NC[C@@H]3CC[C@H]4C[C@@H]3C4(C)C)cccc2n1` [Compound 471, 2-N-butyl-5-N-{[(1S,2R,5S)-6,6-dimethylbicyclo[3.1.1]hept-2-yl]methyl}-2-N-methylimidazo[1,2-a]pyridine-2,5-dicarboxamide], the pIC50 is more than 5.70.

Still in this test, the particulars now being: 50% decrease in the fluorescence response of cells exposed to 80 μM of 2′(3′)-O-(4-benzoyl-benzoyl)adenosine 5′-triphosphate; Example 4A; read-out: IC50.
As for `O=C(NCC12CC3CC(CC(C3)C1)C2)c1cccc2nc(CC3(C(=O)O)SCCS3)cn12` [Compound 733, 2-({5-[(adamantan-1-ylmethyl)carbamoyl]imidazo[1,2-a]pyridin-2-yl}methyl)-1,3-dithiolane-2-carboxylic acid], the pIC50 was more than 5.70.

Take `O=C(NCC12CC3CC(CC(C3)C1)C2)c1cccc2nc(Cc3nnn[nH]3)cn12` [Compound 685, N-(adamantan-1-ylmethyl)-2-(1H-tetrazol-5-ylmethyl)imidazo[1,2-a]pyridine-5-carboxamide]: the pIC50 is more than 5.70. Still for that read-out and setting: under `NCC1CCCN(C(=O)c2cn3c(C(=O)NCC45CC6CC(CC(C6)C4)C5)cccc3n2)C1` (stereo not drawn) [Compound 631, N-(adamantan-1-ylmethyl)-2-{[3-(aminomethyl)piperidin-1-yl]carbonyl} imidazo[1,2-a]pyridine-5-carboxamide] stands more than 5.70; under `CN(Cc1cn2c(C(=O)NCC34CC5CC(CC(C5)C3)C4)cccc2n1)c1ncccc1C(=O)O` [Compound 774, 2-[({5-[(adamantan-1-ylmethyl)carbamoyl]imidazo[1,2-a]pyridin-2-yl}methyl) (methyl)amino] nicotinic acid], more than 5.70.

Staying with this test, now noted: 50% decrease in the fluorescence response of cells exposed to 80 μM of 2′(3′)-O-(4-benzoyl-benzoyl)adenosine 5′-triphosphate; determined as in Example 4A; read-out: IC50.
For the compound `O=C(NCC1(c2ccc(Cl)cc2)CCCCC1)c1cccc2nc(C(Cc3ccccc3)C(=O)O)cn12` (stereo not drawn) [Compound 936, 2-[5-({[1-(4-chlorophenyl)cyclohexyl]methyl}carbamoyl)imidazo[1,2-a]pyridin-2-yl]-3-phenylpropanoic acid], the pIC50 was more than 5.70. As to `CCOC(=O)C1(c2cn3c(C(=O)NCC45CC6CC(CC(C6)C4)C5)cccc3n2)CCOCC1` [Compound 944, ethyl 4-{5-[(adamantan-1-ylmethyl)carbamoyl]imidazo[1,2-a]pyridin-2-yl}tetrahydro-2H-pyran-4-carboxylate], the pIC50 is more than 5.70. For the compound `CCOC(=O)Cc1cn2c(C(=O)NCC(CC(C)C)c3ccc(Cl)cc3)cccc2n1` (stereo not drawn) [Compound 913, ethyl (5-{[2-(4-chlorophenyl)-4-methylpentyl]carbamoyl}imidazo[1,2-a]pyridin-2-yl) acetate], the pIC50 was more than 5.70.

For `CN(C)C1CCCN(C(=O)Cc2cn3c(C(=O)NCC4(c5ccc(C(F)(F)F)cc5)CCCCC4)cccc3n2)C1` (stereo not drawn) [Compound 892, 2-{2-[3-(dimethylamino)piperidin-1-yl]-2-oxoethyl}-N-({1-[4-(trifluoromethyl)phenyl]cyclohexyl}methyl) imidazo[1,2-a] pyridine-5-carboxamide], the pIC50 is more than 5.70. For `O=C(NCC12CC3CC(CC(C3)C1)C2)c1cccc2nc([C@H]3CCCC[C@H]3C(=O)O)cn12` (relative stereo) [Compound 995, rel-(1R,2S)-2-{5-[(adamantan-1-ylmethyl)carbamoyl]imidazo[1,2-a]pyridin-2-yl} cyclohexane-carboxylic acid], the pIC50 is more than 5.70. As to `CC(C)CC(CNC(=O)c1cccc2nc(CN3CC[C@@H](N)C3)cn12)c1cccnc1` (stereo partly drawn) [Compound 823, 2-{[(3R)-3-aminopyrrolidin-1-yl]methyl}-N-(4-methyl-2-pyridin-3-ylpentyl)imidazo[1,2-a]pyridine-5-carboxamide], the negative-log IC50 (pIC50) was more than 5.70. For the compound `CCCC(CNC(=O)c1cccc2nc(CC(Cc3ccccc3)C(=O)O)cn12)c1ccc(Cl)cc1` (stereo not drawn) [Compound 1006, 2-benzyl-3-(5-{[2-(4-chlorophenyl)pentyl]carbamoyl}imidazo[1,2-a]pyridin-2-yl) propanoic acid], the pIC50 was more than 5.70.

The same test, now with this note: SH-SY5Y cells; 50% decrease in fluorescence response to 80 μM BzATP; read-out: IC50.
On to `O=C(NCC12CC3CC(CC(C3)C1)C2)c1cccc2nc(C(=O)N3CC(O)C3)cn12` [Compound 107, N-(adamantan-1-ylmethyl)-2-[(3-hydroxyazetidin-1-yl)carbonyl]imidazo[1,2-a]pyridine-5-carboxamide], for which the pIC50 is more than 5.70.

Turning to `CC(O)CNC(=O)c1cn2c(C(=O)NCC34CC5CC(CC(C5)C3)C4)cccc2n1` (stereo not drawn) [Compound 86, 5-N-(adamantan-1-ylmethyl)--(2-hydroxy-propyl)imidazo[1,2-a]pyridine-2,5-dicarboxamide], the pIC50 was more than 5.70.

For `CC(C)CNC(=O)Cc1cn2c(C(=O)NCC34CC5CC(CC(C5)C3)C4)cccc2n1` [Compound 18, N-(adamantan-1-ylmethyl)-2-[2 (isobutylamino)-2-oxoethyl]imidazo[1,2-a]pyridine-5-carboxamide], the pIC50 is more than 5.70. Take `CC(c1cn2c(C(=O)NCC34CC5CC(CC(C5)C3)C4)cccc2n1)N1CC[C@@H](N)C1` (stereo partly drawn) [Compound 205, N-(adamantan-1-ylmethyl)-2-{1-[(3R)-3-aminopyrrolidin-1-yl]ethyl}imidazo[1,2-a]pyridine-5-carboxamide]: the pIC50 was more than 5.70. Take `O=C(NCC12CC3CC(CC(C3)C1)C2)c1cccc2nc(CN3CC[C@@H](N(CCO)CCO)C3)cn12` [Compound 197, N-(adamantan-1-ylmethyl)-2-({(3R)-3-[bis(2-hydroxy-ethyl)amino]pyrrolidin-1-yl}methyl)imidazo[1,2-a]pyridine-5-carboxamide]: the pIC50 was more than 5.70. As for `O=C(NCC12CC3CC(CC(C3)C1)C2)c1cccc2nc(CC(=O)N3CCC(O)CC3)cn12` [Compound 54, N-(adamantan-1-ylmethyl)-2-[2-(4-hydroxypiperidin-1-yl)-2-oxoethyl]imidazo[1,2-a]pyridine-5-carboxamide], the pIC50 is more than 5.70. For the compound `COC[C@H]1CCCN1C(=O)Cc1cn2c(C(=O)NCC34CC5CC(CC(C5)C3)C4)cccc2n1` [Compound 172, N-(adamantan-1-ylmethyl)-2-{2-[(2R)-2-(methoxymethyl)pyrrolidin-1-yl]-2-oxoethyl}imidazo[1,2-a]pyridine-5-carboxamide], the pIC50 is more than 5.70.

Still in this test, the particulars now being: fluorescence response of cells exposed to 80 μM 2′(3′)-O-(4-benzoyl-benzoyl)adenosine 5′-triphosphate; Example 4A; read-out: IC50.
Turning to `O=C(O)CSCc1cn2c(C(=O)NCC34CC5CC(CC(C5)C3)C4)cccc2n1` [Compound 287, [({5-[(adamantan-1-ylmethyl)carbamoyl]imidazo[1,2-a]pyridin-2-yl}methyl)thio]acetic acid], the pIC50 is more than 5.70. Turning to `O=C(NCC12CC3CC(CC(C3)C1)C2)c1cccc2nc(CN3CCOCC3)cn12` [Compound 291, N-(adamantan-1-ylmethyl)-2-(morpholin-4-ylmethyl)imidazo[1,2-a]pyridine-5-carboxamide], the negative-log IC50 (pIC50) is more than 5.70.

The values are drawn from patent US8431593B2, “Heteroaryl amide derivatives” (H. Lundbeck A/S, priority 2006, dated 2013).
